The results in this text go back to paper PMC5526604 (Journal of medicinal chemistry, 2017).

By IC50 is commonly meant the point on the concentration scale where inhibition reaches its midpoint.

Structures are written as SMILES. Where two headings read alike, the source gives them in different places.

One assay has as its target HIV integrase (Human immunodeficiency virus type 1 group M subtype B, UniProt P04585). In words: HIV IN assay. The assay is classed as biochemical, HIV-1.
In assay [1] the target is HIV RT-associated RNase H (Human immunodeficiency virus type 1 group M subtype B, UniProt P04585). To be noted: biochemical.
[2] abbreviates: read-out: Biochemical Inhibition INST IC50, as relisted in Table 2.

Take `COc1ccc(-c2ccc(NC(=O)c3c(Nc4ccc(-c5ccccc5)cc4)[nH]c(=O)n(O)c3=O)cc2)cc1` [Compound 10c, 6-([1,1′-Biphenyl]-4-ylamino)-3-hydroxy-N-(4′-methoxy-[1,1′-biphenyl]-4-yl)-2,4-dioxo-1,2,3,4-tetrahydropyrimidine-5-carboxamide]: the IC50 against HIV integrase is more than 100 µM.

The molecule `O=C(NCc1ccc(F)cc1)c1c(Nc2ccc(-c3ccccc3)cc2)[nH]c(=O)n(O)c1=O` [Compound 10e, N-(4-Fluorobenzyl)-1-(hydroxy)-1,2,3,6-tetrahydro-2,6-dioxo-4-(biphenylamino)pyrimidine-5-carboxamide] gave an IC50 against HIV integrase of more than 100 µM.

In the case of `O=C(Nc1ccc(-c2ccc(F)cc2)cc1)c1c(Nc2ccc(-c3ccccc3)cc2)[nH]c(=O)n(O)c1=O` [Compound 10b, 6-([1,1′-Biphenyl]-4-ylamino)-N-(4′-fluoro-[1,1′-biphenyl]-4-yl)-3-hydroxy-2,4-dioxo-1,2,3,4-tetrahydropyrimidine-5-carboxamide], at HIV integrase, the IC50 is more than 100 µM.

Take `CCc1ccc(NC(=O)c2c(NCc3ccccc3)[nH]c(=O)n(O)c2=O)cc1` [Compound 10v, 6-(Benzylamino)-N-(4-ethylphenyl)-3-hydroxy-2,4-dioxo-1,2,3,4-tetrahydropyrimidine-5-carboxamide]: the IC50 against HIV integrase and on HIV integrase (setting [2]) was more than 100 µM throughout.

Turning to `O=C(NCc1ccc(F)cc1F)c1c(Nc2ccc(-c3ccccc3)cc2)[nH]c(=O)n(O)c1=O` [Compound 10i, N-(2,4-Difluorobenzyl)-1-(hydroxy)-1,2,3,6-tetrahydro-2,6-dioxo-4-(biphenylamino) pyrimidine-5-carboxamide], the IC50 on HIV integrase and on HIV integrase (setting [2]) was more than 100 µM each time.

Molecule `O=C(NCc1ccccc1F)c1c(Nc2ccc(-c3ccccc3)cc2)[nH]c(=O)n(O)c1=O` [Compound 10g, N-(2-Fluorobenzyl)-1-(hydroxy)-1,2,3,6-tetrahydro-2,6-dioxo-4-(biphenylamino)pyrimidine-5-carboxamide] returned an IC50 against HIV integrase of more than 100 µM.

Turning to `O=C(NCc1cccc(Cl)c1F)c1c(Nc2ccc(-c3ccccc3)cc2)[nH]c(=O)n(O)c1=O` [Compound 10h, N-(3-Chloro-2-fluorobenzyl)-1-(hydroxy)-1,2,3,6-tetrahydro-2,6-dioxo-4-(biphenylamino)pyrimidine-5-carboxamide], the IC50 at HIV integrase is more than 100 µM.

Turning to `O=C(NCc1ccc(-c2ccccc2)cc1)c1c(NCc2ccc(-c3ccccc3)cc2)[nH]c(=O)n(O)c1=O` [Compound 10l], the IC50 at HIV integrase and at HIV integrase (setting [2]) was more than 100 µM each time.

Take `O=C(NCc1ccccc1)c1c(Nc2ccccc2)[nH]c(=O)n(O)c1=O` [Compound 10s, N-Benzyl-1-(hydroxy)-1,2,3,6-tetrahydro-2,6-dioxo-4-(phenylamino)pyrimidine-5-carboxamide]: the “selectivity of RNase H inhibition over INST inhibition” value in assay [1] is reported as approximately 4 fold.

In the case of `O=C(Nc1ccc(-c2ccccc2)cc1)c1c(NCc2ccc(-c3ccccc3)cc2)[nH]c(=O)n(O)c1=O` [Compound 10k, N-([1,1′-Biphenyl]-4-yl)-6-(([1,1′-biphenyl]-4-ylmethyl)amino)-3-hydroxy-2,4-dioxo-1,2,3,4-tetrahydropyrimidine-5-carboxamide], the IC50 at HIV integrase and on HIV integrase (setting [2]) was more than 100 µM each time.

Turning to `O=C(Nc1ccccc1)c1c(NCc2ccccc2)[nH]c(=O)n(O)c1=O` [Compound 10q, 6-(Benzylamino)-3-hydroxy-2,4-dioxo-N-phenyl-1,2,3,4-tetrahydropyrimidine-5-carboxamide], the IC50 against HIV integrase and at HIV integrase (setting [2]) was more than 100 µM each time.

As for `O=C(NCc1cccc(F)c1)c1c(Nc2ccc(-c3ccccc3)cc2)[nH]c(=O)n(O)c1=O` [Compound 10f, N-(3-Fluorobenzyl)-1-(hydroxy)-1,2,3,6-tetrahydro-2,6-dioxo-4 (biphenylamino)pyrimidine-5-carboxamide], the IC50 on HIV integrase and on HIV integrase (setting [2]) was more than 100 µM each time.

Take `O=C(NCc1ccc(-c2ccccc2)cc1)c1c(NCc2ccccc2)[nH]c(=O)n(O)c1=O` [Compound 10p, N-([1,1′-Biphenyl]-4-ylmethyl)-6-(benzylamino)-3-hydroxy-2,4-dioxo-1,2,3,4-tetrahydropyrimidine-5-carboxamide]: the IC50 on HIV integrase and at HIV integrase (setting [2]) was more than 100 µM throughout.

As to `O=C(Nc1ccc(-c2ccccc2)cc1)c1c(NCc2ccccc2)[nH]c(=O)n(O)c1=O` [Compound 10o, N-([1,1′-Biphenyl]-4-yl)-6-(benzylamino)-3-hydroxy-2,4-dioxo-1,2,3,4-tetrahydropyrimidine-5-carboxamide], the IC50 at HIV integrase and on HIV integrase (setting [2]) was more than 100 µM in each case.

As for `O=C(NCc1cc(F)ccc1F)c1c(Nc2ccc(-c3ccccc3)cc2)[nH]c(=O)n(O)c1=O` [Compound 10j, N-(2,5-Difluorobenzyl)-1-(hydroxy)-1,2,3,6-tetrahydro-2,6-dioxo-4-(biphenylamino) pyrimidine-5-carboxamide], the half-maximal inhibitory concentration (IC50) against HIV integrase and on HIV integrase (setting [2]) was more than 100 µM in each case.

Take `O=C(Nc1ccc(C(F)(F)F)cc1)c1c(NCc2ccccc2)[nH]c(=O)n(O)c1=O` [Compound 10y, 6-(Benzylamino)-3-hydroxy-2,4-dioxo-N-(4-(trifluoromethyl)phenyl)-1,2,3,4-tetrahydropyrimidine-5-carboxamide]: the IC50 against HIV integrase and at HIV integrase (setting [2]) was more than 100 µM throughout.

On to `O=C(Nc1ccccc1)c1c(NCc2ccc(-c3ccccc3)cc2)[nH]c(=O)n(O)c1=O` [Compound 10m, 6-(([1,1′-Biphenyl]-4-ylmethyl)amino)-3-hydroxy-2,4-dioxo-N-phenyl-1,2,3,4-tetrahydropyrimidine-5-carboxamide], for which the 50% inhibitory concentration (IC50) against HIV integrase and at HIV integrase (setting [2]) was more than 100 µM each time.

As to `O=C(Nc1ccc(-c2ccccc2)cc1)c1c(Nc2ccc(-c3ccccc3)cc2)[nH]c(=O)n(O)c1=O` [Compound 10a, N-([1,1′-Biphenyl]-4-yl)-6-([1,1′-biphenyl]-4-ylamino)-3-hydroxy-2,4-dioxo-1,2,3,4-tetrahydropyrimidine-5-carboxamide], the IC50 at HIV integrase was more than 100 µM.
